Legend:
[1] = biological target: Ac-Arg-His-Lys-Lys^Ac-AMC; experiment: ITC binding of STACs to Ac-Arg-His-Lys-Lys^Ac-X, X=AMC; details: 10% DMSO for SRT1720, SRT2183 and 10, no cosolvent for SRT1460
Experimental: (§1) ITC experiments were performed using either a VP-ITC system or iTC200 system (MicroCal) at 26° C. in a buffer composed of 137 mM NaCl, 2.7 mM KCl, 1 mM MgCl2, 2 mM TCEP, 5% (v/v) glycerol and 50 mM HEPES-NaOH, pH 7.3. SIRT1(183-664) was purified and dialyzed against the buffer, centrifuged, and degassed before the experiment. The peptide and compounds were dissolved in the final dialysis buffer and their pH values were adjusted to match that of the protein solution. […] To characterize this interaction using the iTC200 system, 1 mM TAMRA-peptide was injected in 20 aliquots of 2 μL, (except the first injection, which was 0.5 μL) into a 0.202 mL sample cell containing 100 μM STAC. For STACs with poor solubility, the concentrations were adjusted accordingly. […] In all cases, data was corrected for the heat of dilution and fitted using a nonlinear least-squares routine using a single-site binding model with Origin for ITC v7.0383 (Microcal) with the stoichiometry (n), the enthalpy of the reaction (ΔH) and the association constant (Ka) calculated. Table 2 summarizes Kd values for the binding of STACs to […]. Note that except for SRT1460, the solubility of the compounds required that these ITC experiments be done in solutions containing 10% DMSO.

[2] = biological target: Ac-Arg-His-Lys-Lys^Ac-NH2; experiment: ITC binding of STACs to Ac-Arg-His-Lys-Lys^Ac-X, X=NH2; details: 10% DMSO for SRT1720, SRT2183 and 10, no cosolvent for SRT1460
Experimental: as §1

[3] = biological target: Ac-Arg-His-Lys-Lys^Ac-Phe-NH2; experiment: ITC binding of STACs to Ac-Arg-His-Lys-Lys^Ac-X, X=PheNH2; details: 10% DMSO for SRT1720, SRT2183 and 10, no cosolvent for SRT1460
Experimental: as §1

[4] = biological target: Ac-Arg-His-Lys-Lys^Ac-Trp-NH2; experiment: ITC binding of STACs to Ac-Arg-His-Lys-Lys^Ac-X, X=TrpNH2; details: 10% DMSO for SRT1720, SRT2183 and 10, no cosolvent for SRT1460
Experimental: as §1

SIRT1 = biological target: T1, SIRT1 (Homo sapiens, UniProt Q96EB6); experiment: Continuous PNC1-GDH-coupled assay of SIRT1-catalyzed deacetylation of Ac-Arg-His-Lys-Lys^Ac-X with STACs; type: biochemical; details: [SRT]o = 5 μM, [peptide]o ≦ Km, [NAD+] = 70 μM; for Relative Velocity, X=AMC: Ac-Arg-His-Lys-Lys^Ac-AMC; for Relative Velocity, X=Ala-NH2: Ac-Arg-His-Lys-Lys^Ac-Ala-NH2; for Relative Velocity, X=NH2: Ac-Arg-His-Lys-Lys^Ac-NH2; for Relative Velocity, X=Phe-NH2: Ac-Arg-His-Lys-Lys^Ac-Phe-NH2
T1 sequence (Q96EB6 1-747): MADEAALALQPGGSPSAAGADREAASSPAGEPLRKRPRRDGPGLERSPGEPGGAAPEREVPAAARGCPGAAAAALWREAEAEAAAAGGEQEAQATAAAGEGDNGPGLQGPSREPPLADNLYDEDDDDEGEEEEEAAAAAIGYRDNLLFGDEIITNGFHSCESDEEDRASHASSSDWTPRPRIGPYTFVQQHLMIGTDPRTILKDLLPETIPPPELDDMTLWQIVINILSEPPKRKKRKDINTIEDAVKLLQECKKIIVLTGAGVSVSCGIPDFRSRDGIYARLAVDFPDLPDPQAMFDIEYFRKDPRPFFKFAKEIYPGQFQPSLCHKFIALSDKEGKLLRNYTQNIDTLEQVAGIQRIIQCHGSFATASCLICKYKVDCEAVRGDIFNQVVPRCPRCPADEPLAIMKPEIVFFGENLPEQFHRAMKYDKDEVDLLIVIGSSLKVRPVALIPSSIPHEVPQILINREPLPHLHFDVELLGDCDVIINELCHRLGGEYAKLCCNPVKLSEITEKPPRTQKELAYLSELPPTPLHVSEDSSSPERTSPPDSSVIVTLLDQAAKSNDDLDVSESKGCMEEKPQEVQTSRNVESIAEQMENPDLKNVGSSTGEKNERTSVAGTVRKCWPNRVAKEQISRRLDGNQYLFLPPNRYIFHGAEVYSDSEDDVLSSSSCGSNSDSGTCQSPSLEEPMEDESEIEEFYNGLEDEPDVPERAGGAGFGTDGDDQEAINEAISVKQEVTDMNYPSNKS
Experimental: Bovine glutamate dehydrogenase (GDH), α-ketoglutarate, NADH and NAD^+ were from Sigma Chemical Company. […] The nicotinamidase PNC1 was prepared as described by Denu and colleagues (Smith et al. (2009) Anal Biochem 394, 101-109). To determine the interaction of STACs with SIRT1 two kinetic methods were employed. […] (2007) Nature 450, 712-716). The other, used with peptides of general structure […], used a continuous, enzyme-coupled method reported previously (Smith et al. (2009) Anal Biochem 394, 101-109), in which the SRT1 product nicotinamide is first converted into nicotinic acid and ammonia by the action of PNC1, and the ammonia then used by GDH to convert α-ketoglutarate into glutamate. This reaction occurs with oxidation of NADH to NAD^+ which is accompanied by a change in absorbance at 340 nm (Δε340=-6,200 M^-1 cm^-1). The kinetic experiments used to characterize activators were run on a Perkin Elmer Lambda 25 spectrophotometer equipped with a water-jacketed, eight-cell changer maintained at 25° C. In a typical kinetic experiment, all components of the reaction solution except SIRT1 were added to a 1 mL cuvette and allowed to reach thermal equilibrium. Final concentrations of the coupling system components were: 1 μM PNC1, 0.23 mM NADH, 3.4 mM α-ketoglutarate, and 20 U/mL bovine GDH. This solution also contained peptide substrate, NAD^.0., and activator, at concentrations indicated in the text. The final DMSO concentration was kept constant at 1%, and the buffer used in these experiments was 50 mM HEPES, 150 mM NaCl, pH 7.5. While the system was reaching thermal equilibrium, the absorbance was monitored to provide an accurate estimate of the background rate, which was subtracted from the reaction rate after the addition of SIRT1. Activator titrations were plotted as relative velocity (i.e., the ratio of vx, velocity in the presence of activator X, to vo, velocity in the absence of activator) vs. [X]o, initial concentration of activator, and fit by nonlinear least-squares to the mechanism-independent expression for enzyme activation of […] the maximum relative velocity (i.e., vx/vo at infinite [X]o) and EC50 is the activator concentration at which vx/vo=(RVmax-1)/2. EC50 is a function of the kinetic mechanisms of both catalysis and activation, and the concentrations of substrates.

Compound | Kd [1] | Kd [2] | Kd [3] | Kd [4] | Kd for binding to Ac-Arg-His-Lys-Lys^Ac-X, X=TrpNH2 [4] | Relative Velocity, X=AMC (SIRT1) | Relative Velocity, X=Ala-NH2 (SIRT1) | Relative Velocity, X=NH2 (SIRT1) | Relative Velocity, X=Phe-NH2 (SIRT1) | Relative Velocity, X=Trp-NH2 (SIRT1; Ac-Arg-His-Lys-Lys^Ac-Trp-NH2)
O=C(Nc1ccccc1-c1cn2c(CN3CCNCC3)csc2n1)c1cnc2ccccc2n1 [SRT1720] | > 500 µM | > 500 µM | > 500 µM | 150 µM | binds | 1.0 | 0.9 | 1.1 | 0.9 | –
O=C(Nc1ccccc1-c1cn2c(CN3CC[C@@H](O)C3)csc2n1)c1ccc2ccccc2c1 [SRT2183] | > 50 µM | > 50 µM | > 50 µM | > 50 µM | – | 1.1 | 0.8 | 1.2 | 1.0 | 1.0

From patent publication US20130102009A1, “SIRTUIN ACTIVATORS AND ACTIVATION ASSAYS” (priority 2010, published 2013)
